Values after ≈ are worked out from the molar mass of the structure shown.
System: M. tuberculosis
Assay type: cell-based, Mycobacterium tuberculosis
Settings: pH 6.8

Row | Compound | MIC in the media 7H9 | MIC in the media L-Ala | MIC in the media SBA | MIC in the media SLac
1 | CCN(CC)CCOc1ccc(C(=C(Cl)c2ccccc2)c2ccccc2)cc1.O=C(O)CC(O)(CC(=O)O)C(=O)O (mixture of isomers) [compound 35770] | ≥ 14.95 µg/mL | 1.91 µg/mL | 1.91 µg/mL | 0.96 µg/mL
2 | N#CC(c1ccccc1)C(CC(=NO)c1ccccc1)c1ccccc1 (mixture of isomers) [compound 186200] | ≥ 136.16 µg/mL | 17.02 µg/mL | 34.04 µg/mL | 2.13 µg/mL
3 | COC(=O)c1cccc([N+](=O)[O-])c1 [compound 1327] | ≥ 72.48 µg/mL | 9.06 µg/mL (≈ 50 µM) | 4.53 µg/mL (≈ 25 µM) | 2.27 µg/mL (≈ 12.5 µM)
4 | NC(=O)c1ccc([N+](=O)[O-])cc1 [compound 2902] | ≥ 66.44 µg/mL | 16.61 µg/mL (≈ 100 µM) | 33.22 µg/mL (≈ 200 µM) | 8.31 µg/mL (≈ 50 µM)
5 | CC(C)c1ccc2c(c1)CCC1C(C)(C(=O)O)CCCC21C (stereo not drawn) [compound 2952] | ≥ 30.04 µg/mL | 3.76 µg/mL (≈ 12.5 µM) | 7.51 µg/mL (≈ 25 µM) | 1.88 µg/mL (≈ 6.26 µM)
6 | O=Nc1ccc(O)c2ncccc12 [compound 3852] | ≥ 4.36 µg/mL | 2.18 µg/mL (≈ 12.5 µM) | 2.18 µg/mL (≈ 12.5 µM) | 1.09 µg/mL (≈ 6.26 µM)
7 | Oc1c(Cl)cc(Cl)c2cccnc12 [compound 3904] | ≥ 4 µg/mL | 0.03 µg/mL (≈ 0.14 µM) | 0.03 µg/mL (≈ 0.14 µM) | 0.03 µg/mL (≈ 0.14 µM)
8 | CCOC(=O)c1ccc([N+](=O)[O-])cc1 [compound 6763] | ≥ 78.08 µg/mL | 9.76 µg/mL (≈ 50 µM) | 4.88 µg/mL (≈ 25 µM) | 4.88 µg/mL (≈ 25 µM)
9 | COC(=O)c1cc([N+](=O)[O-])cc([N+](=O)[O-])c1 [compound 7317] | ≥ 90.44 µg/mL | 11.31 µg/mL (≈ 50 µM) | 5.65 µg/mL (≈ 25 µM) | 5.65 µg/mL (≈ 25 µM)
10 | CCC(C)(C)c1ccc(Oc2cccc(C(=O)O)c2)cc1 [compound 7962] | ≥ 28.43 µg/mL | 3.55 µg/mL (≈ 12.5 µM) | 3.55 µg/mL (≈ 12.5 µM) | 0.45 µg/mL (≈ 1.58 µM)
11 | CN(C)c1ccc(N=Nc2ccccn2)cc1 [compound 9358] | ≥ 22.63 µg/mL | 5.66 µg/mL (≈ 25 µM) | 1.41 µg/mL (≈ 6.23 µM) | 1.41 µg/mL (≈ 6.23 µM)
12 | N=C(N)c1ccc(OCCCCCOc2ccc(C(=N)N)cc2)cc1 [compound 9921] | ≥ 8.51 µg/mL | 2.13 µg/mL (≈ 6.26 µM) | 4.26 µg/mL (≈ 12.5 µM) | 1.09 µg/mL (≈ 3.2 µM)
13 | Oc1ccc(Cc2ccccc2Cl)c(O)c1 [compound 11149] | ≥ 23.47 µg/mL | 5.87 µg/mL (≈ 25 µM) | 2.93 µg/mL (≈ 12.5 µM) | 1.47 µg/mL (≈ 6.26 µM)
14 | Oc1ccc(Cc2ccc(Cl)cc2)c(O)c1 [compound 11150] | ≥ 23.47 µg/mL | 5.87 µg/mL (≈ 25 µM) | 2.93 µg/mL (≈ 12.5 µM) | 1.47 µg/mL (≈ 6.26 µM)
15 | COc1ccc2nc3cc(Cl)ccc3c(Nc3cc(C(C)C)c(O)cc3C)c2c1 [compound 13051] | ≥ 20.35 µg/mL | 2.54 µg/mL (≈ 6.24 µM) | 2.54 µg/mL (≈ 6.24 µM) | 1.30 µg/mL (≈ 3.19 µM)
16 | NC(=O)c1cccnc1 [compound 13128] | ≥ 800 µg/mL | 400 µg/mL (≈ 3280 µM) | 400 µg/mL (≈ 3280 µM) | 400 µg/mL (≈ 3280 µM)
17 | COc1cc(N)c2ncccc2c1 [compound 13573] | ≥ 8.71 µg/mL | 8.71 µg/mL (≈ 50 µM) | 8.71 µg/mL (≈ 50 µM) | 17.42 µg/mL (≈ 100 µM)
18 | NC(=O)c1cnccn1 [compound 14911] | ≥ 800 µg/mL | 200 µg/mL (≈ 1620 µM) | 100 µg/mL (≈ 812 µM) | 200 µg/mL (≈ 1620 µM)
19 | CCCOC(=O)c1ccc(N)cc1 [compound 23516] | ≥ 800 µg/mL | 0.12 µg/mL (≈ 0.67 µM) | 0.25 µg/mL (≈ 1.39 µM) | 0.25 µg/mL (≈ 1.39 µM)
20 | CN(C)CCCN1c2ccc3ccccc3c2Sc2cccc(Cl)c21 [compound 24113] | ≥ 9.22 µg/mL | 2.31 µg/mL (≈ 6.26 µM) | 2.31 µg/mL (≈ 6.26 µM) | 1.18 µg/mL (≈ 3.2 µM)
21 | CCOc1ccc(Nc2c3ccccc3nc3ccccc23)cc1 [compound 30205] | ≥ 1.97 µg/mL | 1.97 µg/mL (≈ 6.27 µM) | 3.93 µg/mL (≈ 12.5 µM) | 1.97 µg/mL (≈ 6.27 µM)

Row | Compound | MIC in the media 7H9 | MIC in the media L-Ala | MIC in the media SBA | MIC in the media SLac
22 | COC(=O)c1ccc(N)cc1O [compound 30263] | ≥ 4.18 µg/mL | 1.05 µg/mL (≈ 6.28 µM) | 4.18 µg/mL (≈ 25 µM) | 1.05 µg/mL (≈ 6.28 µM)
23 | CCCCCc1cc(O)cc2c1Oc1cc(O)cc(C(=O)CCCC)c1C(=O)O2 [compound 31867] | ≥ 39.84 µg/mL | 4.98 µg/mL (≈ 12.5 µM) | 2.49 µg/mL (≈ 6.25 µM) | 0.64 µg/mL (≈ 1.61 µM)
24 | CCOC(=O)c1cccc([N+](=O)[O-])c1 [compound 32740] | ≥ 78.08 µg/mL | 2.44 µg/mL (≈ 12.5 µM) | 4.88 µg/mL (≈ 25 µM) | 2.44 µg/mL (≈ 12.5 µM)
25 | O=C1CC(c2ccc(O)cc2)Oc2cc(O)cc(O)c21 (stereo not drawn) [compound 34875] | ≥ 27.23 µg/mL | 6.81 µg/mL (≈ 25 µM) | 6.81 µg/mL (≈ 25 µM) | 1.70 µg/mL (≈ 6.24 µM)
26 | C=C1C(=O)OC2CC1C(OC(C)=O)C/C(C)=C/CC/C(C)=C\CCC2(C)O (stereo not drawn) [compound 36437] | ≥ 37.65 µg/mL | 9.41 µg/mL (≈ 25 µM) | 4.71 µg/mL (≈ 12.5 µM) | 2.35 µg/mL (≈ 6.24 µM)
27 | O=c1c(-c2ccc(O)cc2)coc2cc(O)cc(O)c12 [compound 36586] | ≥ 108.10 µg/mL | 13.51 µg/mL (≈ 50 µM) | 13.51 µg/mL (≈ 50 µM) | 1.69 µg/mL (≈ 6.25 µM)
28 | NC(=O)c1cccc(N)c1 [compound 36962] | ≥ 54.48 µg/mL | 13.62 µg/mL (≈ 100 µM) | 13.62 µg/mL (≈ 100 µM) | 13.62 µg/mL (≈ 100 µM)
29 | NC(=O)c1ccc(N)cc1 [compound 36963] | ≥ 54.48 µg/mL | 6.81 µg/mL (≈ 50 µM) | 13.62 µg/mL (≈ 100 µM) | 3.41 µg/mL (≈ 25 µM)
30 | NC(=O)c1cccc([N+](=O)[O-])c1 [compound 37327] | ≥ 66.44 µg/mL | 66.44 µg/mL (≈ 400 µM) | 33.22 µg/mL (≈ 200 µM) | 66.44 µg/mL (≈ 400 µM)
31 | C=CCOc1c(CCC)cc(CCC)cc1C(N)=O [compound 37955] | ≥ 26.14 µg/mL | 13.07 µg/mL (≈ 50 µM) | 13.07 µg/mL (≈ 50 µM) | 3.27 µg/mL (≈ 12.5 µM)
32 | CCOC(=O)CCCCCCCCCCCCC1C=CCC1 (stereo not drawn) [compound 38010] | ≥ 30.85 µg/mL | 3.86 µg/mL (≈ 12.5 µM) | 1.93 µg/mL (≈ 6.26 µM) | 1.93 µg/mL (≈ 6.26 µM)
33 | COC(C(=O)C(O)C(C)O)C1Cc2cc3cc(OC4CC(OC(C)=O)C(OC5CC(O)C(OC)C(C)O5)C(C)O4)cc(O)c3c(O)c2C(=O)C1OC1CC(OC2CC(OC3CC(C)(O)C(OC(=O)C(C)C)C(C)O3)C(O)C(C)O2)C(O)C(C)O1 (stereo not drawn) [compound 38270] | ≥ 59.87 µg/mL | 7.48 µg/mL (≈ 6.25 µM) | 3.83 µg/mL (≈ 3.2 µM) | 3.83 µg/mL (≈ 3.2 µM)
34 | NC(=O)c1ccccc1N [compound 38768] | ≥ 54.48 µg/mL | 54.48 µg/mL (≈ 400 µM) | 54.48 µg/mL (≈ 400 µM) | 54.48 µg/mL (≈ 400 µM)
35 | O=C(O)c1cc2ccccc2cc1Nc1ccccc1 [compound 40275] | ≥ 26.33 µg/mL | 3.29 µg/mL (≈ 12.5 µM) | 3.29 µg/mL (≈ 12.5 µM) | 0.84 µg/mL (≈ 3.19 µM)
36 | Cc1c(Cl)ccc2c(C(=O)O)cc(-c3ccccc3)nc12 [compound 40306] | ≥ 29.77 µg/mL | 7.44 µg/mL (≈ 25 µM) | 7.44 µg/mL (≈ 25 µM) | 3.72 µg/mL (≈ 12.5 µM)
37 | CCOC(=O)c1ccc(N)cc1 [compound 41531] | ≥ 800 µg/mL | 0.26 µg/mL (≈ 1.57 µM) | 0.26 µg/mL (≈ 1.57 µM) | 0.26 µg/mL (≈ 1.57 µM)
38 | Nc1cc(Nc2ccc(Br)cc2)nc(N)n1 [compound 42135] | ≥ 28.01 µg/mL | 7.00 µg/mL (≈ 25 µM) | 14.01 µg/mL (≈ 50 µM) | 3.50 µg/mL (≈ 12.5 µM)
39 | O=C1C[C@@H](c2ccccc2)Oc2cc(O)cc(O)c21 [compound 43318] | ≥ 101.70 µg/mL | 6.36 µg/mL (≈ 24.8 µM) | 6.36 µg/mL (≈ 24.8 µM) | 0.41 µg/mL (≈ 1.6 µM)
40 | O=C1C(O)=C(c2ccccc2)C(=O)C(O)=C1c1ccccc1 [compound 44175] | ≥ 29.23 µg/mL | 7.31 µg/mL (≈ 25 µM) | 3.65 µg/mL (≈ 12.5 µM) | 3.65 µg/mL (≈ 12.5 µM)
41 | CN(CC(=O)O)Cc1c(O)c(Cl)cc(Cl)c1Cl [compound 45114] | ≥ 119.40 µg/mL | 29.85 µg/mL (≈ 100 µM) | 14.93 µg/mL (≈ 50 µM) | 3.73 µg/mL (≈ 12.5 µM)
42 | C=C1C(=O)OC2CC1C(OC(C)=O)C/C(C)=C/CC/C(C)=C\CCC2(C)O (stereo not drawn) [compound 46728] | ≥ 75.30 µg/mL | 37.65 µg/mL (≈ 100 µM) | 9.41 µg/mL (≈ 25 µM) | 4.71 µg/mL (≈ 12.5 µM)
